Source: patent publication US4161598A, “1-Oxygenated-2,6-methano-3-benzazocines” (Sterling Drug Inc., priority 1977, dated 1979)
Where two headings read alike, the source gives them in different places.

How the values were obtained:
[1] = test system: thermal stimulus applied to the tail; experiment: Tail-flick Agonist Test; format: in vivo, Rats; details: for ED50: Rattus norvegicus, sc, 0.5 h
Experimental: Rats normally respond to a thermal stimulus applied to the tail by flicking their tails out from under the heat source. The intensity of the stimulus utilized is one which produces control response-times (CRT) of 2-4 seconds. Experimental response-times (ERT) are determined 30 minutes after subcutaneous injections and 60 minutes after oral medications. […] Therefore, the maximum possible increase (MPI) in response-time for any given animal is 20 minus the CRT. The average percent effect, or percent of the maximum possible increase (%MPI) obtained after any given test compound treatment is calculated by the formula [formula] […] ED50 or ED80 values of active compounds are obtained by the Miller and Tainter [Proc. Soc. Exptl.

phenazocine = experiment: Tail-flick Antagonist Test against phenazocine; details: Rattus norvegicus
bradykinin = experiment: Anti-bradykinin Test; format: in vivo, Rats; details: Rattus norvegicus, 2 h
Experimental: This is a secondary evaluation of analgesic activity. […] The threshold dose of bradykinin required for production of the response is determined for each animal, and is readministered at fixed intervals during a two-hour period following the subcutaneous or oral administration of test compounds. In the control response marked rotation of the head and flexion of the forepaw are each scored +2, for a total response score (TRS) of +4. For post-medication scoring any decrease in head rotation or paw flexion from control is each scored +1, rather than +2, while no movement of either the head or paw is each scored 0. Therefore, the TRS following any bradykinin challenge can vary from 0 to 4. Animals whose TRSs are 0-0, 0-+1 or +1-0 after any two consecutive bradykinin challenges during the two-hour post-medication period are scored protected. […] ED50 values of active compounds are estimated by probit analysis of quantal scores from 4 or more dosage levels using 5 animals per dose. In addition the average TRSs obtained at each test interval with each treatment are plotted to permit examination of time-effect relationships and to provide a rough expression of drug effect using graded data. A vehicle-pretreated control animal is tested daily. Synthetic bradykinin from Sandoz Pharmaceuticals is diluted with saline to the proper concentrations for determination of threshold doses for producing the response. All bradykinin injections are made at a constant volume of 0.2 ml. per rat.

narcotics = experiment: Tail-flick Antagonist Test, narcotic not specified
acetylcholine = experiment: Anti-acetylcholine Writhing Test; format: in vivo, mice; details: Mus musculus, 20 min
Experimental: This response has also been called writhing. Animals are pretreated with test compounds (20 minutes for both subcutaneous and oral routes) and observed for two minutes immediately following the administration of acetylcholine. Mice not responding during the two-minute observation period are scored protected while those responding one or more times are scored not protected. Test compounds are screened at doses of 75 and 25 mg./kg. subcutaneously or 150 and 50 mg./kg. orally. […] ED50 values for active compounds are estimated by probit analysis of quantal scores for 4 or more dosage levels using 15 animals per dose. Vehicle-pretreated control animals are tested concurrently with each run of 15 experimental animals.

[2] = test system: ethylenediaminetetraacetic acid (EDTA); experiment: EDTA Antinociceptive Test; format: in vivo, guinea pig; details: Cavia porcellus, sc, 0.5 h; subcutaneous; reduces response score to 6 or less
Experimental: This is also a secondary evaluation of analgesic activity. The test animal is the guinea pig. A threshold intradermal dose of ethylenediaminetetraacetic acid (EDTA) which can reproducibly elicit a cumulative response score of 12-18 discrete episodes of jumping, rearing, running, vocalization and biting or scratching at the site of injection within 40 seconds after challenge is determined for each animal. Thirty minutes after the administration of saline or test compound to 6-7 animals per dose, each animal is again challenged with its own threshold dose of EDTA. An effective drug dose is considered to be one which reduces the response score to 6 or less.

meperidine [3] = experiment: Tail-flick Antagonist Test against meperidine; details: Rattus norvegicus
analgesic activity = experiment: Analgesic activity, summary of the foregoing tests in experimental animals; format: in vivo; details: summary of the foregoing test results
Experimental: As stated above the compounds of Formula I are useful as analgesics and mostly also useful as narcotic antagonists as shown by tests in experimental animals. As presumptive tests of analgesia the anti-acetylcholine writhing, anti-phenylquinone writhing, anti-bradykinin and EDTA anti-nociceptive tests are carried out as follows: […]

morphine [4] = experiment: Tail-flick Antagonist Test against morphine; details: Rattus norvegicus
[5] = test system: phenyl-p-quinone (phenylquinone); experiment: Anti-phenylquinone Writhing Test; format: in vivo, mice; details: Mus musculus
Experimental: This test is used to confirm the anti-acetylcholine writhing test. The ability of compounds to prevent phenyl-p-quinone (phenylquinone)-induced writhing in mice is determined in this test. […] Animals are pretreated with test compounds (15 minutes for subcutaneous route, 30 minutes for oral route) and observed for three one-minute intervals during the 5-12 minutes following administration. Mice responsing fewer than three times during the three one-minute observation periods are scored protected while those responding three or more times are scored not protected. Test compounds are screened using 10-14 animals per treatment, usually at doses of 75-100 mg./kg. subcutaneously or 150-200 mg./kg. orally. […] ED50 values for active compounds are estimated by probit analysis of quantal scores for 3-5 dosage levels using 14-30 animals per dose. Vehicle-pretreated control animals are tested daily.

meperidine [6] = experiment: meperidine antagonist activity in the rat; details: as the free base
morphine [7] = experiment: morphine antagonist activity in the rat; details: as the free base
[8] = subcutaneous, 120 Mg./Kg. of Base
[9] = po, read-out: ED50 (95% Confidence Limits), Oral
[10] = sc, read-out: ED50 (95% Confidence Limits), Subcutaneous
[11] = summary of the foregoing test results
[12] = po, oral, read-out: ED50 (95% Confidence Limits), Oral
[13] = sc, subcutaneous, base, read-out: Subcutaneous ED50 (95% Confidence Limits)
[14] = sc, subcutaneous, free base or acid addition salt, read-out: ED50 (95% Confidence Limits), Subcutaneous
[15] = po, 0.5 h, read-out: ED50 (95% Confidence Limits), Oral
[16] = sc, 0.25 h, read-out: ED50 (95% Confidence Limits), Subcutaneous

For `C[C@H]1[C@H]2C(=O)c3ccc(O)cc3[C@]1(C)CCN2CC1CC1` (relative stereo) [Example 1, 1,2,3,4,5,6-hexahydro-1-oxo-3-cyclopropylmethyl-8-hydroxy-6(eq),11(ax)-dimethyl-2,6-methano-3-benzazocine], the “Percent Inhibition of Response, Oral” value ([1]; oral, 200 Mg./Kg. of Base) was 11.2%, the dead ([1]; oral, 200 Mg./Kg. of Base) was 1/6 and the righting reflex ([1]; oral, 200 Mg./Kg. of Base) was “partial loss”. For the same molecule, the salivation ([1]; oral, 200 Mg./Kg. of Base) was “slight”, the “Percent Inhibition of Response, Subcutaneous” value [1, 8] was 2.3% and the “activity (observed side effect)” value [1, 8] was “decreased”. For the same molecule, the observed side effect [1, 8] was “atoxia”, the ED50 (phenazocine; po, 20 min, read-out: AD50 (95% Confidence Limits) Against Phenazocine, Oral) was 63 mg/kg and the ED50 (phenazocine; sc, 10 min, read-out: AD50 (95% Confidence Limits) Against Phenazocine, Subcutaneous) was 5 mg/kg. For the same molecule, the ED50 (phenazocine; sc, 10 min, read-out: Subcutaneous AD50 (95% Confidence Limits) Against Phenazocine) was 4.3 mg/kg, the ED50 (bradykinin; [9]) was 10 mg/kg and the ED50 (bradykinin; [10]) was 0.069 mg/kg. For the same molecule, the narcotic antagonist activity (narcotics; [11]) was “weak narcotic antagonist activity”, the ED50 (acetylcholine; [12]) was 12 mg/kg and the ED50 (acetylcholine; [13]) was 0.12 mg/kg. For the same molecule, the ED50 (acetylcholine; [14]) was 0.16 mg/kg, the ED50 (acetylcholine; sc, subcutaneous, hydrochloride salt, read-out: Subcutaneous ED50 (95% Confidence Limits)) was 0.16 mg/kg and the ED50 (acetylcholine; sc, subcutaneous, methanesulfonate salt, read-out: Subcutaneous ED50 (95% Confidence Limits)) was 0.16 mg/kg. It also gave a minimal effective dose [2] of 0.03 mg/kg, an ED50 (meperidine [3]; po, 20 min, read-out: AD50 (95% Confidence Limits) Against Meperidine, Oral) of 78 mg/kg and an ED50 (meperidine [3]; sc, 10 min, read-out: AD50 (95% Confidence Limits) Against Meperidine, Subcutaneous) of 7.2 mg/kg. For the same molecule, the ED50 (meperidine [3]; sc, 10 min, read-out: Subcutaneous AD50 (95% Confidence Limits) Against Meperidine) was 2 mg/kg, the analgesic activity (analgesic activity) was “strong analgesic activity” and the ED50 (morphine [4]; po, 20 min, read-out: AD50 (95% Confidence Limits) Against Morphine, Oral) was 91 mg/kg. It also gave an ED50 (morphine [4]; sc, 10 min, read-out: AD50 (95% Confidence Limits) Against Morphine, Subcutaneous) of 4.9 mg/kg, an ED50 (morphine [4]; sc, 10 min, read-out: Subcutaneous AD50 (95% Confidence Limits) Against Morphine) of 4 mg/kg and an ED50 [5, 15] of 15.2 mg/kg. The ED50 [5, 16] was 0.16 mg/kg.

For `CC[C@]12CCN(CC3CC3)[C@H](C(=O)c3ccc(O)cc31)[C@@H]2C` (relative stereo) [Example 29, 1,2,3,4,5,6-hexahydro-1-oxo-3-cyclopropylmethyl-8-hydroxy-6(eq)-ethyl-11(ax)-methyl-2,6-methano-3-benzazocine], the ED50 ([1]; read-out: Tail-flick Agonist Subcutaneous ED50) was 9 ± 10 mg/kg, the ED50 ([1]; subcutaneously, read-out: agonist ED50) was 9 ± 10 mg/kg and the narcotic activity [1, 11] was “no narcotic activity”. The activity as agonist ([1]; tail-flick test, result in words) was “active”, the ED50 (bradykinin; [9]) was 11 mg/kg and the ED50 (bradykinin; [10]) was 0.053 mg/kg. For the same molecule, the narcotic antagonist activity (narcotics; [11]) was “weak narcotic antagonist activity”, the narcotic antagonist activity (narcotics; tail-flick antagonist test, result in words) was “Inactive” and the ED50 (acetylcholine; [12]) was 7.6 mg/kg. The ED50 (acetylcholine; [13]) was 0.045 mg/kg, the ED50 (acetylcholine; [14]) was 0.074 mg/kg and the minimal effective dose [2] was 0.025 mg/kg. The analgesic activity (analgesic activity) was “strong analgesic activity”, the ED50 [5, 15] was 9.1 mg/kg and the ED50 [5, 16] was 0.03 mg/kg.

With `COc1ccc2c(c1)[C@]1(C)CCN(C)[C@H](C2=O)[C@@H]1C` (relative stereo) [Compound 12] the activity against meperidine (meperidine [6]) was “weakly active” and the activity against morphine (morphine [7]) was “inactive”.
